Several values for one entry are separate records, joined by “and”; a condition that tells them apart may be missing. Equal values may be shown once. Read-outs that look alike come from different tables or passages of the source.
Tests used:
[1] = target: T1, human KSP motor domain (KSP(367H)) (Homo sapiens, UniProt P52732); experiment: Kinesin ATPase in vitro assay (KSP ATPase, quinaldine red/ammonium molybdate phosphate detection); format: biochemical
T1 construct: were used to amplify the motor domain and the neck linker region; made in house; host or cells: E. coli BL21 (DE3), pRSETa
T1 sequence (P52732 18-359 limits assumed): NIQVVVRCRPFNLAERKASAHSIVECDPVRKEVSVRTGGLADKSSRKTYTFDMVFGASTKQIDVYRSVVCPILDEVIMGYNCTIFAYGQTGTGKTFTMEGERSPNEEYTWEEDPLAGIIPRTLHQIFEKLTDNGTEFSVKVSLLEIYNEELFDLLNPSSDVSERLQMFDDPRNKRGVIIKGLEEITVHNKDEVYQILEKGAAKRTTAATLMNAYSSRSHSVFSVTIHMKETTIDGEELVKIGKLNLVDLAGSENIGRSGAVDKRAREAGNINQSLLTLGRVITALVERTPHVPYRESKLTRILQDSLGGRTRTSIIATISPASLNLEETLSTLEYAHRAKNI
Text: Plasmids for the expression of the human KSP motor domain construct were cloned by PCR using a pBluescript full length human KSP construct (Blangy et al., Cell, vol. 83, pp 1159-1169, 1995) as a template. The N-terminal primer 5′-[…] (SEQ.ID.NO.: 1) and the C-terminal primer 5′-[…] […] (SEQ.ID.NO.: 2) were used to amplify the motor domain and the neck linker region. The PCR products were digested with AseI and XhoI, ligated into the NdeI/XhoI digestion product of pRSETa (Invitrogen) and transformed into E. coli BL21 (DE3).
Cells were grown at 37° C. to an OD600 of 0.5. After cooling the culture to room temperature expression of KSP was induced with 100 μM IPTG and incubation was continued overnight. Cells were pelleted by centrifugation and washed once with ice-cold PBS. Pellets were flash-frozen and stored −80° C.
Cell pellets were thawed on ice and resuspended in lysis buffer (50 mM K-HEPES, pH 8.0, 250 mM KCl, 0.1% Tween, 10 mM imidazole, 0.5 mM Mg-ATP, 1 mM PMSF, 2 mM benzimidine, 1× complete protease inhibitor cocktail (Roche)). Cell suspensions were incubated with 1 mg/ml lysozyme and 5 mM β-mercaptoethanol on ice for 10 minutes, followed by sonication (3×30 sec). All subsequent procedures were performed at 4° C. Lysates were centrifuged at 40,000×g for 40 minutes. Supernatants were diluted and loaded onto an SP Sepharose column (Phamacia, 5 ml cartridge) in buffer A (50 mM K-HEPES, pH 6.8, 1 mM MgCl2, 1 mM EGTA, 10 μM Mg-ATP, 1 mM DTT) and eluted with a 0 to 750 mM KCl gradient in buffer A. Fractions containing KSP were pooled and incubated with Ni-NTA resin (Qiagen) for one hour. The resin was washed three times with buffer B (Lysis buffer minus PMSF and protease inhibitor cocktail), followed by three 15-minute incubations and washes with buffer B. Finally, the resin was incubated and washed for 15 minutes three times with buffer C (same as buffer B except for pH 6.0) and poured into a column. KSP was eluted with elution buffer (identical to buffer B except for 150 mM KCl and 250 mM imidazole). KSP-containing fractions were pooled, made 10% in sucrose, and stored at −80° C.
Microtubules are prepared from tubulin isolated from bovine brain. Purified tubulin (>97% MAP-free) at 1 mg/ml is polymerized at 37° C. in the presence of 10 μM paclitaxel, 1 mM DTT, 1 mM GTP in BRB80 buffer (80 mM K-PIPES, 1 mM EGTA, 1 mM MgCl2 at pH 6.8). The resulting microtubules are separated from non-polymerized tubulin by ultracentrifugation and removal of the supernatant. The pellet, containing the microtubules, is gently resuspended in 10 μM paclitaxel, 1 mM DTT, 50 μg/ml ampicillin, and 5 μg/ml chloramphenicol in BRB80.
(§1) The kinesin motor domain (20 nM) is incubated with microtubules, ATP (1 mM 1:1 MgCl2: Na-ATP), and compound at 23° C. in buffer containing 80 mM K-HEPES (pH 7.0), 1 mM EGTA, 1 mM DTT, 1 mM MgCl2, and 50 mM KCl. The reaction is terminated by a 2-10 fold dilution with a final buffer composition of 80 mM HEPES and 50 mM EDTA (or, alternately, with a 1:1 addition of reaction volume to stop buffer(1.8M KCl and 50 mM EDTA)). Free phosphate from the ATP hydrolysis reaction is measured via a quinaldine red/ammonium molybdate assay by adding a 1.5 times volume of quench C (e.g., to a mixture of […] reaction volume+40 μl stop buffer is then added 120 μl quench C). Quench A contains 0.1 mg/ml quinaldine red and 0.14% polyvinyl alcohol; quench B contains 12.3 mM ammonium molybdate tetrahydrate in 1.15 M sulfuric acid. Quench C is a 2:1 ratio of quench A:quench B The reaction is incubated for 5-10 minutes at 23° C., and the absorbance of the phospho-molybdate complex is measured at 540 nm.
In order to identify compounds useful in the methods of the instant invention, the assay described above was then performed in the presence (0.5 μM) and absence of microtubules. Compounds that are commercially available are noted by the source and catalog number.

[2] = target: T1, human KSP motor domain (KSP(367H)); experiment: Substrate competitive profile by Michaelis-Menton analysis with the KSP ATPase assay; format: biochemical; settings: for Competitive with ATP?: ATP varied between 4 μM and 500 μM, in the presence of 2 μM of microtubules; for Competitive with MT?: microtubules varied between 0.01 μM and 5 μM, in the presence of 1 mM of ATP
Protocol: as §1
The in vitro substrate competitive profiles of the compounds described in Table 1 below were determined using a Michaelis-Menton analysis with the assay described above, but varying assay concentrations of one of the substrates (ATP or microtubule) in the presence of excess of the second substrate. Thus, the concentration of ATP was varied between 4 μM and 500 μM, in the presence of 2 μM of microtubules. And the concentration of microtubules was varied between 0.01 μM and 5 μM, in the presence of 1 mM of ATP.

[3] = Table 1, kinesin motor domain 20 nM, with microtubules, 1 mM ATP, 23° C., read-out: KSP ATPase IC50
[4] = Table 2, microtubules absent (basal), [MT] = 0 uM, standard KSP(ADP), read-out: KSP ATPase IC50 (nM) [MT] = 0 uM
[5] = Table 2, microtubules present, [MT] = 0.5 uM, standard KSP(ADP), read-out: KSP ATPase IC50 (nM) [MT] = 0.5 uM

Structure (SMILES) | IC50 [1, 3] | IC50 [1, 4] | IC50 [1, 5] | Competitive with ATP? [2] | Competitive with MT? [2] | IC50 ([1]; KSP ATPase IC50 (nM) [MT] = 0 uM, Table 2, microtubules absent (basal), [MT] = 0 uM, standard KSP(ADP)) | IC50 ([1]; KSP ATPase IC50 (nM) [MT] = 0.5 uM, Table 2, microtubules present, [MT] = 0.5 uM, standard KSP(ADP)) | IC50 ([1]; KSP ATPase IC50 (nM), Table 1, kinesin motor domain 20 nM, with microtubules, 1 mM ATP, 23° C.)
CC(C)(C)c1cccc(NC(=O)Nc2ccc3ccc(O)cc3c2)c1 [Compound 6, N-(3-tert-butylphenyl)-N-(7-hydroxy-2-naphthyl)urea] | 1900 nM | > 50000 nM | 2780 nM | no | no | – | – | –
O=C(c1cc([N+](=O)[O-])ccc1Cl)N1c2ccccc2Sc2ccccc21 [Compound 13] | 864 nM | > 50000 nM | 2530 nM and 4520 nM | no | no | – | – | –
CSc1ccc(C(=O)N2CCCN(CC(=O)Nc3ccc(F)cc3)CC2)s1 [Compound 15] | 7020 nM and 6750 nM | > 50000 nM | 8880 nM | no | no | – | – | –
O=C(Nc1nc2ccccc2s1)C(c1ccccc1)c1ccccc1 [Compound 2] | 1090 nM | > 50000 nM | 1400 nM and 2150 nM | no | no | – | – | –
Oc1cccc(CC2(Cc3cccc(O)c3)Cc3ccccc3C2)c1 [Compound 5] | 5870 nM | > 50000 nM | 7740 nM | no | no | – | – | –
O=C(NC(C(=O)c1ccccc1)c1ccccc1)OCc1ccccc1 (centres unmarked) [Compound 3, N-(2-Oxo-1,2-diphenyl-ethyl)-carbamic acid benzyl ester] | 2360 nM | > 50000 nM | 4050 nM and 2940 nM | no | no | – | – | –
C=CCNC(=O)c1cc(-c2ccc(Cl)cc2)n(-c2cc(Cl)ccc2Cl)n1 [Compound 8] | 5040 nM | > 50000 nM | 3100 nM and 5540 nM | no | no | – | – | –
CCOC(=O)CSc1nc(C23CC4CC(CC(C4)C2)C3)ccc1C#N [Compound 12] | 556 nM | > 50000 nM | 1150 nM | no | – | – | – | –
Cc1ccc(NC(=O)C(c2ccccc2)c2ccccc2)cc1[N+](=O)[O-] [Compound 7] | 3850 nM | > 50000 nM | 3690 nM and 6290 nM | no | no | – | – | –
CCCc1cc(N)c2cc(NC(=O)c3ccc(Oc4ccc(Cl)cc4)cc3)ccc2n1 [Compound 4] | 3230 nM | > 50000 nM | 2550 nM and 3430 nM | no | no | – | – | –
Cc1cc2ncn(CC(O)COc3ccc(I)cc3)c2cc1C (centres unmarked) [Compound 10] | 4750 nM | > 50000 nM | 5040 nM | no | no | – | – | –
CCN1C(=O)C(O)(c2ccccc2)c2cc(Br)ccc21 (centres unmarked) [Compound 14] | – | – | – | no | no | > 50000 nM | 8920 nM and 4600 nM | 3920 nM
Cc1nn(C(=S)NCc2ccccc2)c2c1[C@H]1[C@@H](C2)C1(C)C [Compound 11] | 1230 nM | > 50000 nM | 1820 nM and 1360 nM | no | no | – | – | –
O=C(Nc1ccc(Br)c(Cl)c1)C(c1ccccc1)c1ccccc1 [Compound 9] | 692 nM | > 50000 nM | 647 nM | no | no | – | – | –
CC(C)(C)c1ccc2[nH]c3c(c2c1)CCCC3=O [Compound 1] | 597 nM | > 50000 nM | 619 nM and 685 nM | no | no | – | – | –
